From patent publication US9469650B2, “Melampomagnolide B derivatives” (BOARD OF TRUSTEES OF THE UNIVERSITY OF ARKANSAS, priority 2013, dated 2016)
Where two headings read alike, the source gives them in different places.

Columns and labels:
MALME-3M = test: panel of 60 human tumor cell lines, growth inhibition (Melanoma); details: for GI50 / CC50: Homo sapiens, Malme-3M; for CC50: read-out: LC50; for TGI / Percent Growth: MALME-3M
RPMI-8226 = test: panel of 60 human tumor cell lines, growth inhibition (Leukemia); details: for GI50 / CC50: Homo sapiens; for GI50 / TGI / Percent Growth: RPMI-8226; for CC50: RPMI-8226, read-out: LC50
OVCAR-4 = test: panel of 60 human tumor cell lines, growth inhibition (Ovarian Cancer); assay type: cell-based; details: OVCAR-4; for GI50 / IC (TGI) / CC50: Homo sapiens; for CC50: read-out: LC50 (the source's name)
KM12 = test: panel of 60 human tumor cell lines, growth inhibition (Colon Cancer); details: for GI50 / CC50: Homo sapiens; for GI50 / TGI / Percent Growth: KM12; for CC50: KM12, read-out: LC50
[1] = tested on: panel of 60 human tumor cell lines; test: panel of 60 human tumor cell lines, whole panel or sub-panel (single concentration screen, summaries); assay type: cell-based; details: for inhibition at 10 µM: single concentration of 10^−5 M, read-out: growth inhibition in at least eight human cancer cell lines from the panel; for GI50: range over 6a and 6e
HL-60(TB) = test: cells; details: Homo sapiens; for GI50: HL-60; for CC50: HL-60, read-out: LC50; for IC (TGI): HL-60, read-out: TGI

Source text for AML 052308 cells: Derivatives were screened for antileukemic activity against AML cells in culture (See FIGS. 1-7).

| SMILES | GI50 (RPMI-8226) [µM] | CC50 (RPMI-8226) [µM] | Percent Growth (RPMI-8226; Log10 Concentration −4.0) [%] | Percent Growth (RPMI-8226; Log10 Concentration −5.0) [%] | Percent Growth (RPMI-8226; Log10 Concentration −6.0) [%] | Percent Growth (RPMI-8226; Log10 Concentration −7.0) [%] | Percent Growth (RPMI-8226; Log10 Concentration −8.0) [%] | GI50 (KM12) [µM] | CC50 (KM12) [µM] | Percent Growth (KM12; Log10 Concentration −4.0) [%] | Percent Growth (KM12; Log10 Concentration −5.0) [%] | Percent Growth (KM12; Log10 Concentration −6.0) [%] | Percent Growth (KM12; Log10 Concentration −7.0) [%] | Percent Growth (KM12; Log10 Concentration −8.0) [%] | cytotoxicity compared to MMB (AML 052308 cells) | inhibition at 10 µM [1] [%] | GI50 (OVCAR-4; NCI five dose) [µM] | GI50 (HL-60(TB)) [µM] | CC50 (HL-60(TB)) [µM] | IC (TGI) (HL-60(TB)) [µM] | also measured |
| --- | --- | --- | --- | --- | --- | --- | --- | --- | --- | --- | --- | --- | --- | --- | --- | --- | --- | --- | --- | --- | --- |
| C=C1C(=O)O[C@H]2[C@H]1CC/C(COC(=O)NCCc1ccccn1)=C\CC[C@@]1(C)O[C@@H]21 [JVM 61, ((1aR,7aS,10aS,10bS,E)-1a-methyl-8-methylene-9-oxo-1a,2,3,6,7,7a,8,9,10a,10b-decahydrooxireno[2′,3′:9,10]cyclodeca[1,2-b]furan-5-yl)methyl-(2-(pyridin-2-yl)ethyl)carbamate] | 8.2 | > 100 | −32 | 45 | 100 | 100 | 102 | 16.5 | 62.2 | −86 | 88 | 103 | 107 | 105 | almost equal cytotoxicity to MMB | > 60 |  |  |  |  | GI50 (MALME-3M): 7.52 µM; CC50 (MALME-3M): 84.9 µM; TGI (MALME-3M): 2.71E−5; Percent Growth (MALME-3M; Log10 Concentration −4.0): −57%; Percent Growth (MALME-3M; Log10 Concentration −5.0): 44%; Percent Growth (MALME-3M; Log10 Concentration −6.0): 95%; Percent Growth (MALME-3M; Log10 Concentration −7.0): 100%; Percent Growth (MALME-3M; Log10 Concentration −8.0): 114%; TGI (RPMI-8226): 3.88E−5; GI50 (OVCAR-4): 7.17 µM; IC (TGI) (OVCAR-4): 24.6 µM; CC50 (OVCAR-4): 72.3 µM; Percent Growth (OVCAR-4; Log10 Concentration −4.0): −65%; Percent Growth (OVCAR-4; Log10 Concentration −5.0): 42%; Percent Growth (OVCAR-4; Log10 Concentration −6.0): 99%; Percent Growth (OVCAR-4; Log10 Concentration −7.0): 96%; Percent Growth (OVCAR-4; Log10 Concentration −8.0): 103%; TGI (KM12): 3.21E−5 |
| C=C1C(=O)O[C@H]2[C@H]1CC/C(COC(=O)NCCCCCCO)=C\CC[C@@]1(C)O[C@@H]21 [JVM 2-31] |  |  |  |  |  |  |  |  |  |  |  |  |  |  |  | > 60 | 4.01 | 3.64 | > 100 | 14.2 | IC (TGI) (OVCAR-4; NCI five dose): 19.4 µM; CC50 (OVCAR-4; NCI five dose): 65.1 µM |
| C=C1C(=O)O[C@H]2[C@H]1CC/C(COC(=O)NCCN1CCOCC1)=C\CC[C@@]1(C)O[C@@H]21 [JVM 57, ((1aR,7aS,10aS,10bS,E)-1a-methyl-8-methylene-9-oxo-1a,2,3,6,7,7a,8,9,10a,10b-decahydrooxireno[2′,3′:9,10]-cyclodeca[1,2-b]furan-5-yl)-methyl(2-morpholinoethyl)carbamate] | 5.72 | > 100 | −47 | 34 | 99 | 97 | 100 | 26.3 | > 100 | −12 | 95 | 100 | 106 | 102 | less active than MMB | > 60 |  | 3.59 | 85.1 | 16.1 | GI50 (MALME-3M): 6.12 µM; CC50 (MALME-3M): 63.2 µM; TGI (MALME-3M): 2.19E−5; Percent Growth (MALME-3M; Log10 Concentration −4.0): −72%; Percent Growth (MALME-3M; Log10 Concentration −5.0): 37%; Percent Growth (MALME-3M; Log10 Concentration −6.0): 97%; Percent Growth (MALME-3M; Log10 Concentration −7.0): 91%; Percent Growth (MALME-3M; Log10 Concentration −8.0): 100%; TGI (RPMI-8226): 2.63E−5; GI50 (OVCAR-4): 10.1 µM; IC (TGI) (OVCAR-4): 25.3 µM; CC50 (OVCAR-4): 63.4 µM; TGI (KM12): 7.66E−5 |
| C=C1C(=O)O[C@H]2[C@H]1CC/C(COC(=O)OCCN(C)C)=C\CC[C@@]1(C)O[C@@H]21 [JVM 2-35] |  |  |  |  |  |  |  |  |  |  |  |  |  |  |  | > 60 | 5.04 | 1.77 | 87 | 6.4 | IC (TGI) (OVCAR-4; NCI five dose): 18.6 µM; CC50 (OVCAR-4; NCI five dose): 44.6 µM |
| C=C1C(=O)O[C@H]2[C@H]1CC/C(COC(=O)OCCCN1CCCCC1)=C\CC[C@@]1(C)O[C@@H]21 [JVM 2-26] |  |  |  |  |  |  |  | 15.5 | 63.3 | −83 | 81 | 97 | 94 | 95 | more potent than MMB | > 60 |  | 1.88 | 98.7 | 7.53 | GI50 (OVCAR-4): 2.13 µM; IC (TGI) (OVCAR-4): 11.6 µM; CC50 (OVCAR-4): 38.6 µM; TGI (KM12): 3.13E−5; fold more cytotoxic than MMB (AML 052308 cells): 3 fold |
| C=C1C(=O)O[C@H]2[C@H]1CC/C(COC(=S)n1ccnc1)=C\CC[C@@]1(C)O[C@@H]21 [JVM 66] | 11 | > 100 | −31 | 53 | 102 | 103 | 103 | > 100 | > 100 | 60 | 99 | 99 | 102 | 100 | more potent than MMB | > 60 | 19.8 | 4.05 | 69.5 | 16.2 | GI50 (MALME-3M): 14.5 µM; CC50 (MALME-3M): > 100 µM; Percent Growth (MALME-3M; Log10 Concentration −4.0): −32%; Percent Growth (MALME-3M; Log10 Concentration −5.0): 66%; Percent Growth (MALME-3M; Log10 Concentration −6.0): 107%; Percent Growth (MALME-3M; Log10 Concentration −7.0): 95%; Percent Growth (MALME-3M; Log10 Concentration −8.0): 94%; TGI (MALME-3M; NCI five dose): 4.74E−5; TGI (RPMI-8226; NCI five dose): 4.29E−5; IC (TGI) (OVCAR-4; NCI five dose): 90.9 µM; CC50 (OVCAR-4; NCI five dose): > 100 µM; TGI (KM12; NCI five dose): >1.00E−4; fold more cytotoxic than MMB (AML 052308 cells): about 6 fold; fold more potent than parthenolide (AML 052308 cells; AML 052308 cells): 3 fold |
| C=C1C(=O)O[C@H]2[C@H]1CC/C(COC(=O)CCC(=O)NCc1ccc(Cl)nc1)=C\CC[C@@]1(C)O[C@@H]21 [JVM 96] | 4.16 | > 100 | −48 | 23 | 94 | 107 | 106 | 17.7 | 67.9 | −79 | 92 | 104 | 100 | 98 |  | > 60 |  | 2.12 | > 100 | 8.75 | TGI (RPMI-8226): 2.09E−5; GI50 (OVCAR-4): 10.1 µM; IC (TGI) (OVCAR-4): 23.6 µM; CC50 (OVCAR-4): 55.2 µM; Percent Growth (OVCAR-4; Log10 Concentration −4.0): −85%; Percent Growth (OVCAR-4; Log10 Concentration −5.0): 51%; Percent Growth (OVCAR-4; Log10 Concentration −6.0): 87%; Percent Growth (OVCAR-4; Log10 Concentration −7.0): 90%; Percent Growth (OVCAR-4; Log10 Concentration −8.0): 96%; TGI (KM12): 3.46E−5 |
| C=C1C(=O)O[C@H]2[C@H]1CC/C(COC(=O)OC)=C\CC[C@@]1(C)O[C@@H]21 [JVM 2-40] |  |  |  |  |  |  |  |  |  |  |  |  |  |  |  | > 60 | 3.76 | 1.69 | 76.3 | 7.15 | IC (TGI) (OVCAR-4; NCI five dose): 18.7 µM; CC50 (OVCAR-4; NCI five dose): 64.1 µM |
| C=C1C(=O)O[C@H]2[C@H]1CC/C(COC(=O)Nc1n[nH]c(SC)n1)=C\CC[C@@]1(C)O[C@@H]21 [JVM 64, ((1aR,7aS,10aS,10bS,E)-1a-methyl-8-methylene-9-oxo-1a,2,3,6,7,7a,8,9,10a,10b-decahydrooxireno[2′,3′:9,10]cyclodeca[1,2-b]furan-5-yl)methyl-(5-(methylthio)-1H-1,2,4-triazol-3-yl)carbamate] | 2.57 | > 100 | −46 | −11 | 93 | 100 | 101 | 4.01 | 41.5 | −91 | 17 | 101 | 108 | 104 | more potent than MMB | > 60 | 3.28 |  |  |  | GI50 (MALME-3M): 2.32 µM; CC50 (MALME-3M): 78.8 µM; Percent Growth (MALME-3M; Log10 Concentration −4.0): −54%; Percent Growth (MALME-3M; Log10 Concentration −5.0): −12%; Percent Growth (MALME-3M; Log10 Concentration −6.0): 66%; Percent Growth (MALME-3M; Log10 Concentration −7.0): 99%; Percent Growth (MALME-3M; Log10 Concentration −8.0): 104%; TGI (MALME-3M; NCI five dose): 7.53E−6; TGI (RPMI-8226; NCI five dose): 7.79E−6; IC (TGI) (OVCAR-4; NCI five dose): 19.3 µM; CC50 (OVCAR-4; NCI five dose): 62.4 µM; TGI (KM12; NCI five dose): 1.43E−5; fold more cytotoxic than MMB (AML 052308 cells): 3 fold; GI50 ([1]; sub-panel breast cancer): 0.57 to 3.07 µM; GI50 ([1]; sub-panel colon cancer): 1.12 to 2.06 µM; GI50 ([1]; sub-panel melanoma): 0.46 to 2.84 µM; GI50 ([1]; sub-panel non-small cell lung cancer): 0.65 to 1.45 µM; GI50 ([1]; sub-panel renal cancer): 0.9 to 2.6 µM |
